The results in this text go back to patent US9556179B2 (BRISTOL-MYERS SQUIBB COMPANY, priority 2012, dated 2017).

As a reminder, the IC50 is the concentration at which inhibition is half-maximal. Higher therefore signals weaker potency.

The target in one assay is CK1ε (Homo sapiens (Human), UniProt P49674). The assay can be described thus: CK1ε kinase assay (Caliper LABCHIP electrophoretic separation of fluoresceinated peptide substrate and product). The assay is classed as biochemical. As to conditions: 200 pM enzyme, 50 μM ATP, 22 hours at room temperature. The method, boiled down:
(§1)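 Reactions ran 22 hours at room temperature and were stopped with EDTA. Phosphorylated product and unphosphorylated substrate were then separated electrophoretically. Compounds were tested at eleven concentrations, and IC50 values came from non-linear regression.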

The target of a further assay is CK1δ (Homo sapiens (Human), UniProt P48730). The assay can be described thus: CK1δ kinase assay (Caliper LABCHIP electrophoretic separation of fluoresceinated peptide substrate and product). The assay is classed as biochemical. The note with it: 200 pM enzyme, 50 μM ATP, 22 hours at room temperature. The method, boiled down:
as §1

Sequence of CK1ε (P49674 whole entry): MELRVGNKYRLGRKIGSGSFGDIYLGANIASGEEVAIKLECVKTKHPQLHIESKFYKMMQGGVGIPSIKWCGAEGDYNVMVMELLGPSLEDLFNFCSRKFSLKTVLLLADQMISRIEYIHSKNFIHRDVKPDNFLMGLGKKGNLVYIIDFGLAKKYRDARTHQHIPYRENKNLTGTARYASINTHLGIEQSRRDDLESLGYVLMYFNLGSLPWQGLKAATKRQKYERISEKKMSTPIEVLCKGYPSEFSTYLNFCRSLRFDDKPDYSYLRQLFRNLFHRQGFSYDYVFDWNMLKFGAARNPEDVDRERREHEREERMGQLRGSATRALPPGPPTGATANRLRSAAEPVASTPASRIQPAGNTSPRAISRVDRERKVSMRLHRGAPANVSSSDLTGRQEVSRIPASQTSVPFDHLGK
Sequence of CK1δ (P48730 whole entry): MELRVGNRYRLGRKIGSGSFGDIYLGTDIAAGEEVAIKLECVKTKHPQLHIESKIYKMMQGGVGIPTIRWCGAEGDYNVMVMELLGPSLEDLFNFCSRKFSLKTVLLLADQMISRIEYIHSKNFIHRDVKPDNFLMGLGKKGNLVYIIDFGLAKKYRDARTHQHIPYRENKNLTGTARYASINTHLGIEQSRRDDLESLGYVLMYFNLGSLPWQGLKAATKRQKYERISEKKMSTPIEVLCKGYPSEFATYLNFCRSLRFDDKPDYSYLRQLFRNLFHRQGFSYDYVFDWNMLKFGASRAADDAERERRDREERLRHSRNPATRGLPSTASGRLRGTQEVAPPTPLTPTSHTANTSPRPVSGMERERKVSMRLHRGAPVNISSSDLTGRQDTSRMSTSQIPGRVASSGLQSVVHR

With `Cc1nc(-c2cccnc2)sc1C(=O)Nc1cn2nc(-c3c(-c4ccc(F)cc4)ncn3C3CCN(CCC(F)(F)F)CC3)ccc2n1` [Compound 98, N-(6-(4-(4-fluorophenyl)-1-(1-(3,3,3-trifluoropropyl)piperidin-4-yl)-1H-imidazol-5-yl)imidazo [1,2-b]pyridazin-2-yl)-4-methyl-2-(pyridin-3-yl)thiazole-5-carboxamide], the values for the 50% inhibitory concentration (IC50) against CK1ε and against CK1δ were 3.88 nM and 0.268 nM, respectively.

On to `O=C(Nc1cn2nc(-c3c(-c4ccc(F)cc4)ncn3C3CCN(C[C@@H](O)C(F)(F)F)CC3)ccc2n1)c1cc(F)nc(F)c1` [Compound 90, (R)-2,6-difluoro-N-(6-(4-(4-fluorophenyl)-1-(1-(3,3,3-trifluoro-2-hydroxypropyl)piperidin-4-yl)-1H-imidazol-5-yl)imidazo[1,2-b]pyridazin-2-yl)isonicotinamide], for which the IC50 against CK1ε was 5.68 nM; against CK1δ it was 0.65 nM.

For `CC(C)(C)C(=O)Nc1cn2nc(-c3[nH]cnc3-c3ccc(F)cc3)ccc2n1` [Compound 276, N-(6-(4-(4-fluorophenyl)-1H-imidazol-5-yl)imidazo[1,2-b]pyridazin-2-yl)pivalamide], the IC50 against CK1ε stood at 35.9 nM; against CK1δ it was 3.88 nM.

As for `O=C(Nc1cn2nc(-c3c(-c4ccc(F)cc4)ncn3CC(F)F)ccc2n1)c1cnc(-c2ccncc2)s1` [Compound 415, N-(6-(1-(2,2-Difluoroethyl)-4-(4-fluorophenyl)-1H-imidazol-5-yl)imidazo[1,2-b]pyridazin-2-yl)-2-(pyridin-4-yl)thiazole-5-carboxamide], the IC50 stood at 8.71 nM against CK1ε and 1.21 nM at CK1δ.

For `CC(C)CCN1CCC(n2cnc(-c3ccc(F)cc3)c2-c2ccc3nc(NC(=O)c4ccnc(F)c4)cn3n2)CC1` [Compound 32, 2-fluoro-N-(6-(4-(4-fluorophenyl)-1-(1-isopentylpiperidin-4-yl)-1H-imidazol-5-yl)imidazo[1,2-b]pyridazin-2-yl)isonicotinamide], the IC50 was determined as 10.7 nM against CK1ε and 0.602 nM against CK1δ.

For `COCCn1cnc(-c2ccc(F)cc2)c1-c1ccc2nc(NC(=O)c3ccnc(F)c3)cn2n1` [Compound 233, 2-fluoro-N-(6-(4-(4-fluorophenyl)-1-(2-methoxyethyl)-1H-imidazol-5-yl)imidazo[1,2-b]pyridazin-2-yl)isonicotinamide], the IC50 against CK1ε was 1.17 nM; at CK1δ, 0.306 nM.

Consider `Cc1nc(-c2ccc(F)cc2)c(-c2ccc3nc(NC(=O)c4cn[nH]c4)cn3n2)n1C` [Compound 364, N-(6-(4-(4-fluorophenyl)-1,2-dimethyl-1H-imidazol-5-yl)imidazo[1,2-b]pyridazin-2-yl)-1H-pyrazole-4-carboxamide], for which the values for the IC50 on CK1ε and at CK1δ were 4.01 nM and 0.566 nM, respectively.

Take `CN1CCC(C(=O)Nc2cn3nc(-c4c(-c5ccc(F)cc5)nc5ccccn45)ccc3n2)CC1` [Compound 216, N-(6-(2-(4-fluorophenyl)imidazo[1,2-a]pyridin-3-yl)imidazo[1,2-b]pyridazin-2-yl)-1-methylpiperidine-4-carboxamide]: the IC50 against CK1ε is 26.7 nM; at CK1δ, 2.95 nM.

`CC(C)c1nc(-c2ccc(F)cc2)c(-c2ccc3nc(NC(=O)c4ccnc(F)c4)cn3n2)n1CC(F)F` [Compound 287, N-(6-(1-(2,2-difluoroethyl)-4-(4-fluorophenyl)-2-isopropyl-1H-imidazol-5-yl)imidazo[1,2-b]pyridazin-2-yl)-2-fluoroiso-nicotinamide]: the IC50 against CK1ε amounted to 9.17 nM; on CK1δ it was 0.776 nM.

As for `O=C(Nc1cn2nc(-c3c(-c4ccc(F)cc4)ncn3C3CCNCC3)ccc2n1)c1cc(F)nc(F)c1` [Compound 87, 2,6-difluoro-N-(6-(4-(4-fluorophenyl)-1-(piperidin-4-yl)-1H-imidazol-5-yl)imidazo[1,2-b]pyridazin-2-yl)isonicotinamide], the IC50 at CK1ε is 1.05 nM; at CK1δ, 0.402 nM.

For the compound `O=C(Nc1cn2nc(-c3c(-c4ccc(F)cc4)nc4ccccn34)ccc2n1)c1ccncc1F` [Compound 200, 3-fluoro-N-(6-(2-(4-fluorophenyl)imidazo[1,2-a]pyridin-3-yl)imidazo[1,2-b]pyridazin-2-yl) isonicotinamide], the IC50 against CK1ε came to 4.61 nM; against CK1δ, 1.78 nM.

On to `Cc1nc(-c2ccc(F)cc2)c(-c2ccc3nc(NC(=O)c4cc(-c5ccc(F)cc5)ncn4)cn3n2)n1C` [Compound 389], for which the IC50 on CK1ε was 270 nM; on CK1δ, 35.2 nM.

For `CN1CC(n2cnc(-c3ccc(F)cc3)c2-c2ccc3nc(NC(=O)c4ccncc4)cn3n2)C1` [Compound 158, N-(6-(4-(4-fluorophenyl)-1-(1-methylazetidin-3-yl)-1H-imidazol-5-yl)imidazo[1,2-b]pyridazin-2-yl)isonicotinamide], the IC50 was 2.73 nM on CK1ε and 0.854 nM at CK1δ.

For `O=C(Nc1cn2nc(-c3c(-c4ccc(F)cc4)ncn3C3CCN(Cc4cc[nH]n4)CC3)ccc2n1)c1ccnc(F)c1` [Compound 20, N-(6-(1-(1-((1H-pyrazol-3-yl)methyl)piperidin-4-yl)-4-(4-fluorophenyl)-1H-imidazol-5-yl)imidazo[1,2-b]pyridazin-2-yl)-2-fluoroisonicotinamide], the IC50 was 1.78 nM against CK1ε and 0.28 nM at CK1δ.

For `O=C(Nc1cn2nc(-c3c(-c4ccc(F)cc4)ncn3C3CC3)ccc2n1)c1ccnc(N2CCOCC2)c1` [Compound 428, N-(6-(1-Cyclopropyl-4-(4-fluorophenyl)-1H-imidazol-5-yl)imidazo[1,2-b]pyridazin-2-yl)-2-morpholinoisonicotinamide], the IC50 against CK1ε amounted to 9.1 nM; at CK1δ it was 0.9 nM.

With `Cc1nc(-c2ccc(F)cc2)c(-c2ccc3nc(NC(=O)c4ccnc(F)c4)cn3n2)n1C1CCN(CCC#N)CC1` [Compound 144, N-(6-(1-(1-(2-cyanoethyl)piperidin-4-yl)-4-(4-fluorophenyl)-2-methyl-1H-imidazol-5-yl)imidazo[1,2-b]pyridazin-2-yl)-2-fluoroisonicotinamide], the IC50 came out at 1.55 nM on CK1ε and 0.254 nM at CK1δ.

Take `O=C(Nc1cn2nc(-c3c(-c4ccc(F)cc4)ncn3CC(F)(F)F)ccc2n1)c1ccnc(F)c1` [Compound 236]: the values for the IC50 against CK1ε and against CK1δ were 1.15 nM and 0.266 nM, respectively.

Turning to `O=C(Nc1cn2nc(-c3c(-c4ccc(F)cc4)nc4ccccn34)ccc2n1)c1csc(-c2ccncc2)n1` [Compound 187, N-(6-(2-(4-fluorophenyl)imidazo[1,2-a]pyridin-3-yl)imidazo[1,2-b]pyridazin-2-yl)-2-(pyridin-4-yl)thiazole-4-carboxamide], the IC50 against CK1ε was 30.3 nM; on CK1δ, 10.5 nM.

For the compound `Cc1nc(-c2cccnc2)sc1C(=O)Nc1cn2nc(-c3c(-c4ccc(F)cc4)ncn3C3CCN(C[C@H](O)C(F)(F)F)CC3)ccc2n1` [Compound 99, (S)—N-(6-(4-(4-fluorophenyl)-1-(1-(3,3,3-trifluoro-2-hydroxypropyl)piperidin-4-yl)-1H-imidazol-5-yl)imidazo[1,2-b]pyridazin-2-yl)-4-methyl-2-(pyridin-3-yl)thiazole-5-carboxamide], the IC50 against CK1ε was determined as 1.26 nM; at CK1δ, 0.329 nM.

As to `Cc1nc(-c2ccc(F)cc2)c(-c2ccc3nc(NC(=O)c4ccnc(N5CCOCC5)c4)cn3n2)n1C` [Compound 324, N-(6-(4-(4-fluorophenyl)-1,2-dimethyl-1H-imidazol-5-yl)imidazo[1,2-b]pyridazin-2-yl)-2-morpholinoisonicotin-amide], the IC50 came out at 1.91 nM against CK1ε and 0.344 nM on CK1δ.

Regarding `Cc1nc(-c2ccc(F)cc2)c(-c2ccc3nc(NC(=O)c4cc5ccccc5[nH]4)cn3n2)n1C` [Compound 319, N-(6-(4-(4-fluorophenyl)-1,2-dimethyl-1H-imidazol-5-yl)imidazo[1,2-b]pyridazin-2-yl)-1H-indole-2-carboxamide], the values for the IC50 against CK1ε and at CK1δ were 12.1 nM and 1.73 nM, respectively.

As to `COc1cccc2[nH]c(C(=O)Nc3cn4nc(-c5c(-c6ccc(F)cc6)nc(C)n5C)ccc4n3)cc12` [Compound 347, N-(6-(4-(4-fluorophenyl)-1,2-dimethyl-1H-imidazol-5-yl)imidazo[1,2-b]pyridazin-2-yl)-4-methoxy-1H-indole-2-carboxamide], the figures for the IC50 at CK1ε and against CK1δ were 1.19 nM and 0.379 nM, respectively.

Take `CC1(NC(=O)N2CCn3c(nc(-c4ccc(F)cc4)c3-c3ccc4nc(NC(=O)c5ccnc(F)c5)cn4n3)C2)CC1` [Compound 485, 3-(2-(2-Fluoroisonicotinamido)imidazo[1,2-b]pyridazin-6-yl)-2-(4-fluorophenyl)-N-(1-methylcyclopropyl)-5,6-dihydroimidazo[1,2-a]pyrazine-7(8H)-carboxamide]: the half-maximal inhibitory concentration (IC50) on CK1ε came out at 4.5 nM; at CK1δ, 0.5 nM.

`Cc1nc(-c2ccc(F)cc2)c(-c2ccc3nc(NC(=O)c4ccc5ncccc5c4)cn3n2)n1C` [Compound 336, N-(6-(4-(4-fluorophenyl)-1,2-dimethyl-1H-imidazol-5-yl)imidazo[1,2-b]pyridazin-2-yl)-6-quinolinecarboxamide]: the figures for the IC50 at CK1ε and against CK1δ were 2.2 nM and 0.507 nM, respectively.

For `O=C(Nc1cn2nc(-c3c(-c4ccc(F)cc4)nc(C4CC4)n3C3CCN(C(=O)Nc4ccncc4)CC3)ccc2n1)c1ccnc(F)c1` [Compound 125, N-(6-(2-cyclopropyl-4-(4-fluorophenyl)-1-(1-(pyridin-4-ylcarbamoyl)piperidin-4-yl)-1H-imidazol-5-yl)imidazo[1,2-b]pyridazin-2-yl)-2-fluoroisonicotinamide], the results for the IC50 on CK1ε and on CK1δ were 6.03 nM and 0.95 nM, respectively.

`Cc1nc(-c2cccnc2)sc1C(=O)Nc1cn2nc(-c3c(-c4ccc(F)cc4)ncn3C3CN(C)C3)ccc2n1` [Compound 154, N-(6-(4-(4-fluorophenyl)-1-(1-methylazetidin-3-yl)-1H-imidazol-5-yl)imidazo[1,2-b]pyridazin-2-yl)-4-methyl-2-(pyridin-3-yl)thiazole-5-carboxamide]: the IC50 on CK1ε was 8.64 nM; against CK1δ it was 0.915 nM.
